Here are results for 23 compounds from patent US7238725B2, “Tricyclic compounds useful for the treatment of inflammatory and allergic disorders: process for their preparation and pharmaceutical compositions containing them” (Glenmark Pharmaceuticals Ltd., priority 2002, dated 2007).

In general, IC50 refers to the concentration that inhibits the measured activity by half. Broadly, the EC50 is the concentration needed to bring the measured effect to its halfway point. High values mean a less potent agent, low ones a more potent agent. Usually melting point stands for the temperature of the solid-liquid transition.

A value given as a limit tells only on which side of the number the result lay.

One series deals with PDE4 enzyme. The series is described as follows: Inhibition of Phosphodiesterase Enzymes (PDE4), [3H]cAMP hydrolysis. It is filed as biochemical. Conditions: PDE4 enzyme, 1 μM cAMP and 3H cAMP, 34° C.; read-out: IC50. The method, then:
Inhibition of Phosphodiesterase Enzymes (PDE4)
In this assay, PDE4 enzyme converts [^3H] cAMP to the corresponding [^3H] 5′-AMP in proportion to the amount of PDE4 present The [^3H] 5′-AMP then was quantitatively converted to free [^3H] adenosine and phosphate by the action of snake venom 5′-nucleotidase.
The assay was performed with modification of the method of Thompson and Appleman (Biochemistry; 1971; 10; 311-316) and Schwartz and Passoneau (Proc. Natl. Acad. Sci. U.S.A. 1974; 71; 3844-3848), both references incorporated herein by reference in their entirety, at 34° C. In a 200 ul total reaction mixture, the reaction mixture contained 12.5 mM of Tris, 5 mM MgCl2, 1 μM cAMP (cold) and ^3H cAMP (0.1 uCi), (Amersham). […] Drug samples were then added in the reaction mixture (25 μl/tube). The assay was initiated by addition of enzyme mix (75 μl) and the mixture was incubated for 20 minutes at 34° C. The reaction was stopped by boiling the tubes for 2 mins at 100° C. in a water bath. After cooling on ice for 5 minutes and addition of 50 ug/reaction of 5′-nucleotidase snake venom from Crotalus atrox incubation was carried out again for 20 min. at 34° C. The unreacted substrate was separated from (^3H) Adenosine by addition of Dowex AG 1-X8 (Biorad Lab), (400 ul) which was prequilibrated (1:1:1) in water and ethanol. Reaction mixture was then thoroughly mixed, placed on ice for 15 minutes, vortexed and centrifuged at 14,000 r.p.m. for 2 mins. After centrifugation, a sample of the supernatant was taken and added in 24 well optiplates containing Scintillant (1 ml) and mixed well. The samples in the plates were then determined for radioactivity in a Top Counter and the PDE4 activity was estimated. PDE4 enzyme was present in quantities that yield <30% total hydrolysis of substrate (linear assay conditions).
Results were expressed as percent inhibition (IC50) in nM concentrations. The IC50 values were determined from the concentration curves by nonlinear regression analysis.
The IC50 value for the compound examined was determined from concentration-response curves in which varying range of concentrations were considered as shown in table 1

For a further series, the system named is PDE4. The series is described as follows: Cell Based Assay for PDE4 Inhibition: cAMP elevation in whole U937 cells. The following applies: 1 μM PGE1, normalized over PGE1. The protocol:
Cell Based Assay for PDE4 Inhibition:
cAMP elevation studies were conducted in whole U937 cells. U937 cells (ATCC) were grown in RPMI medium containing 10% FBS, 1% pen-strep solution, 1% L-glutamine for 48 hrs. On the day of assay, the cells were washed twice with plain RPM1 medium by centrifuging at 800 rpm for 5 mins. Cells were resuspended in plain RPM1 medium followed by cell number and viability assessment using a trypan blue stain. Cells (0.15-0.2 mio cells per well) were seeded in a 96 well microtitre plate and incubated with various drugs/DMSO vehicle at 37° C. for 15 min. cAMP generation was started by addition of 1 μM PGE1 for 15 mins. The incubation was terminated by addition of cell lysis buffer from cAMP estimation kit. Lysate was used for cAMP quantitatin by chemiluminescence method (DiscoveRX kits). cAMP values were normalized over PGE1. EC50 values were calculated from dose response curves by nonlinear regression analysis using PRISM software.

Regarding `COc1ccc(C(=O)Nc2c(Cl)c[n+]([O-])cc2Cl)c2c1oc1ccc(C(F)(F)F)cc12` [Example 10, N-(3,5-dichloropyrid-4-yl)-4-methoxy-8-trifluoromethyl dibenzo[b,d]furan-1-carboxamide-N1-oxide], on PDE4 enzyme, the IC50 was determined as 1.68 nM. In the series with PDE4, this compound yielded an EC50 of 117 nM.

Compound `COc1ccc(C(=O)Nc2cccnc2Cl)c2c1oc1ccccc12` [Example 5, N-(2-chloropyrid-3-yl)-4-methoxy dibenzo[b,d]furan-1-carboxamide] yielded a melting point of 192 °C. Also, the IC50 on PDE4 enzyme is 336 nM.

On to `COc1ccc(C(=O)Nc2c(Cl)cncc2Cl)c2c1oc1ccc(C(F)(F)F)cc12` [Example 9, N-(3,5-dichloropyrid-4-yl)-4-methoxy-8-trifluoromethyl dibenzo[b,d]furan-1-carboxamide], for which the IC50 on PDE4 enzyme was found to be 1.56 nM. Moreover, the EC50 in the series with PDE4 was determined as 17.6 nM.

With `COc1ccc(C(=O)Nc2c(Cl)cncc2Cl)c2c1oc1ccc(Cl)cc12` [Example 41, N-(3,5-dichloropyrid-4-yl)-4-methoxy-8-chloro-dibenzo[b,d]furan-1-carboxamide], the melting point worked out at 300 °C. Also, the IC50 on PDE4 enzyme is 0.839 nM. In the series with PDE4, the EC50 stood at 200 nM.

`O=C(Nc1ccncc1)c1ccc(OC(F)F)c2oc3ccc(C(F)(F)F)cc3c12` [Example 14, N-(pyrid-4-yl)-4-difluoromethoxy-8-trifluoromethyl dibenzo[b,d]furan-1-carboxamide] displayed a melting point of 228 °C. Further, at PDE4 enzyme, the IC50 came out at 6.41 nM.

For `COc1ccc(C(=O)Nc2c(Cl)cncc2Cl)c2c1oc1ccc(C#N)cc12` [Example 57, N-(3,5dichloropyrid-4-yl)-4-methoxy-8-cyano-dibenzo[b,d]furan-1-carboxamide], the IC50 on PDE4 enzyme was determined as 1.74 nM. Besides, it took 73.7 nM to reach a half-maximal effect in the series with PDE4 (EC50).

In the case of `COc1ccc(C(=O)Nc2c(Cl)cncc2Cl)c2c1oc1ccc(I)cc12` [Example 45, N-(3,5-dichloropyrid-4-yl)-4-methoxy-8-iodo-dibenzo[b,d]furan-1-carboxamide], the melting point was 304 °C (dec.). Moreover, the IC50 on PDE4 enzyme was 4.54 nM. Moreover, the EC50 with PDE4 is more than 300 nM.

The compound `Nc1ccc2oc3c(OC(F)F)ccc(C(=O)Nc4c(Cl)cncc4Cl)c3c2c1` [Example 59, N-(3,5-dichloropyrid-4-yl)-4-difluoromethoxy-8-amino-dibenzo[b,d]furan-1-carboxamide] had a melting point of more than 270 °C. For the same compound, the IC50 at PDE4 enzyme came out at 4.47 nM. In the series on PDE4, this compound gave a concentration for a half-maximal effect (EC50) of 49.2 nM.

The compound `COc1ccc(C(=O)Nc2cccnc2)c2c1oc1ccccc12` [Example 7, N-(pyrid-3-yl)-4-methoxy dibenzo[b,d]furan-1-carboxamide] came in with a melting point of 226 °C. Further, the IC50 at PDE4 enzyme turned out to be 26 nM.

In turn, `COc1ccc(C(=O)Nc2c(Cl)c[n+]([O-])cc2Cl)c2c1oc1ccccc12` [Example 2, N-(3,5-dichloropyrid-4-yl)-4-methoxy dibenzo[b,d]furan-1-carboxamide-N1-oxide] gave a melting point of 265 to 270 °C. Besides, the EC50 with PDE4 came out at 23.8 nM.

`COc1ccc(C(=O)Nc2ccncc2)c2c1oc1ccc(C(F)(F)F)cc12` [Example 11, N(pyrid-4-yl)-4-methoxy-8-trifluoromethyl dibenzo[b,d]furan-1-carboxamide]: the IC50 at PDE4 enzyme is 9.14 nM. In the series with PDE4, this compound displayed an EC50 of more than 220 nM.

For the compound `O=C(Nc1c(Cl)cncc1Cl)c1ccc(OC(F)F)c2oc3ccc([N+](=O)[O-])cc3c12` [Example 58, N-(3,5-dichloropyrid-4-yl)-4-difluoromethoxy-8-nitro-dibenzo[b,d]furan-1-carboxamide], the melting point was more than 270 °C. The IC50 at PDE4 enzyme amounted to 10 nM. In the series on PDE4, the EC50 is 148 nM.

As for `O=C(Nc1c(Cl)cncc1Cl)c1ccc(OCC2CC2)c2oc3ccccc3c12` [Example 25, N-(3,5-dichloropyrid-4-yl)-4-cyclopropylmethoxy dibenzo[b,d]furan-1-carboxamide], the melting point came to 242 °C. Besides, on PDE4 enzyme, the IC50 was 111 nM.

For the compound `O=C(Nc1c(Cl)cncc1Cl)c1ccc(OC(F)F)c2oc3ccccc3c12` [Example 19, N-(3,5-dichloropyrid-4-yl)-4-difluoromethoxy dibenzo[b,d]furan-1-carboxamide], the melting point was 270 °C. Also, the IC50 at PDE4 enzyme was determined as 2.54 nM. For the same compound, the EC50 in the series on PDE4 came out at 20.4 nM.

Regarding `COc1ccc(C(=O)Nc2c(Cl)cncc2Cl)c2c1oc1ccc([N+](=O)[O-])cc12` [Example 38, N-(3,5-dichloropyrid-4-yl)-4-methoxy-8-nitro dibenzo[b,d]furan-1-carboxamide], the IC50 on PDE4 enzyme came to 2.85 nM. In addition, the EC50 in the series on PDE4 came out at 87.9 nM.

As for `COc1ccc(C(=O)Nc2cc[n+]([O-])cc2)c2c1oc1ccccc12` [Example 4, N(pyrid-4-yl)-4-methoxy dibenzo[b,d]furan-1-carboxamide-N1-oxide], at PDE4 enzyme, the IC50 was 20.2 nM. This compound had an EC50 with PDE4 of more than 300 nM.

`O=C(Nc1ccc(Cl)cn1)c1ccc(OC(F)F)c2oc3ccccc3c12` [Example 24, N-(5-chloropyrid-2-yl)-4-difluoromethoxy dibenzo[b,d]furan-1-carboxamide] gave a melting point of 155 to 157 °C.

Regarding `O=C(Nc1c(Cl)c[n+]([O-])cc1Cl)c1ccc(OC(F)F)c2oc3ccc(C(F)(F)F)cc3c12` [Example 13, N-(3,5-dichloropyrid-4-yl)-4-difluoromethoxy-trifluoromethyl dibenzo[b,d]furan-1-carboxamide-N1-oxide], on PDE4 enzyme, the IC50 was 2.54 nM. For the same compound, in the series on PDE4, the EC50 was 128 nM.

Compound `O=C(Nc1ccccn1)c1ccc(OC(F)F)c2oc3ccc(C(F)(F)F)cc3c12` [Example 18, N-(pyrid-2-yl)-4-difluoromethoxy-8-trifluoromethyl dibenzo[b,d]furan-1-carboxamide] had a melting point of 169 to 170 °C.

Take `O=C(Nc1c(Cl)cncc1Cl)c1ccc(OC(F)F)c2oc3ccc(C(F)(F)F)cc3c12` [Example 12, N-(3,5-dichloropyrid-4-yl)-4-difluoromethoxy-8-trifluoromethyl dibenzo[b,d]furan-1-carboxamide]: the melting point stood at 228 °C. Also, the IC50 on PDE4 enzyme turned out to be 1.21 nM. In the series on PDE4, it took 140 nM to reach a half-maximal effect (EC50).

Consider `O=C(Nc1c(Cl)c[n+]([O-])cc1Cl)c1ccc(OC(F)F)c2oc3ccccc3c12` [Example 56, N-(3,5-dichloropyrid-4-yl)-4-difluoromethoxy-dibenzo[b,d]furan-1-carboxamide-N-oxide], for which the IC50 at PDE4 enzyme was determined as 2.85 nM. This compound displayed an EC50 with PDE4 of 49.2 nM.

For `COc1ccc(C(=O)Nc2c(Cl)cncc2Cl)c2c1oc1ccc(Br)cc12` [Example 42, N-(3,5-dichloropyrid-4-yl)-4-methoxy-8-bromo-dibenzo[b,d]furan-1-carboxamide], the melting point was 308 °C. For the same compound, the IC50 at PDE4 enzyme was 4.92 nM. Besides, a half-maximal response in the series on PDE4 (EC50) required 44.2 nM.

In the case of `COc1ccc(C(=O)Nc2c(Cl)cncc2Cl)c2c1oc1ccc(N)cc12` [Example 55, N-(3,5-dichloropyrid-4-yl)-4-methoxy-8-amino-dibenzo[b,d]furan-1-carboxamide], the melting point was 249 °C (dec.). Further, the IC50 on PDE4 enzyme worked out at 1.2 nM. In the series with PDE4, this compound returned an EC50 of 47.5 nM.
